{"source": "patent US4172148A", "about": "“Ruminant feeds containing trichloroethyl esters of essential amino acids” (E. R. Squibb & Sons, Inc., priority 1978, dated 1979)", "key": {"[1]": {"tested_on": "volatile fatty acid concentrations in the in vitro rumen fermentation", "assay": "in vitro rumen fermentation, volatile fatty acids, high concentrate substrate, alfalfa hay:concentrate 1:3 (Examples 4 and 7)", "set-up": "species or system sheep", "settings": "for Acetic acid / Acetic:propionic / Butyric acid / Propionic acid / Total acids: hay:concentrate 1:3", "protocol": "(§1) A one gram sample of substrate ground through a 1 mm screen is weighed into 100 ml. lipless beakers equipped with gas-release valves. The substrate consists of alfalfa hay containing approximately 16% protein and a concentrate containing ground corn 60.7%, alfalfa meal 17.5%, molasses 10.0%, soybean meal 5.3%, wheat bran 5.0%, trace mineralized salt 1.0%, limestone 0.5% and Vitamin D 300,000 I.U./ton, mixed in the proportion 3:1. The experimental composition is added to the substrate. 25 ml. of filtered rumen fluid obtained from fasted sheep maintained on feed the same as the above mentioned substrate and 25 ml. of McDougal's buffer solution serve as the inoculum. The buffer solution is as follows:\n(§2) The fermentation mixture is flushed with carbon dioxide and the vessel is capped with a gas release valve. The fermentation vessel (beaker) is placed in a water bath and incubated at 39° C.±1° for six hours. The sample is mixed every hour by shaking the beaker.\n(§3) At the end of the 6-hour fermentation period the sample is strained through 4 layers of cheesecloth into a sample bottle containing 1 ml. saturated solution of mercuric chloride. The sample is frozen immediately until analyzed for the volatile fatty acids (VFA) (mg/100 ml.). Prior to analysis, each sample is acidified with 30% phosphoric acid and then analyzed by gas chromatography using a column containing 5% nonylphenoxypolyoxyethylene ethanol plus 0.5% phosphoric acid on 100-120 mesh Gas Chrom S. The acids determined are acetic, propionic, butyric, isobutyric, valeric and isovaleric acids. Total VFA is considered as the addition of these acids. The ratio of acetic: propionic (A:P) is obtained by dividing the concentration of acetic acid by that of propionic acid.\nThe procedure is described in Example 3. In this example, however, the substrate consisted of alfalfa hay and concentrate in the ratio of 1:3 and inoculum was obtained from sheep fed alfalfa and concentrate in the ratio of 1:3. The concentrate (Fit-N-Fresh) is commercially available from Agway, Inc. and contains grain products, plant protein products, processed grain by-products, cane molasses, minerals, vitamins and a preservative.\nThe 2,2,2-trichloroethyl ester of glycine was tested in vitro in a manner similar to that described in Example 4."}, "[2]": {"tested_on": "volatile fatty acid concentrations in the in vitro rumen fermentation", "assay": "in vitro rumen fermentation, volatile fatty acids, alfalfa hay:concentrate 3:1 (Examples 3 and 12)", "set-up": "species or system sheep", "settings": "for Acetic acid / Acetic:propionic / Butyric acid / Propionic acid / Total acids: 6 h, 39° C.", "protocol": "as §1, §2, §3\nThe effect of various compounds alone on the volatile fatty acid concentrations was determined by the procedure of Example 3. […] A direct comparison between phenylalanine and phenylalanine trichloroethyl ester is provided."}, "growing lambs": {"tested_on": "growing lambs", "assay": "body weight gain and feed efficiency of growing lambs (Examples 9-11)", "format": "in vivo, lambs (sheep)", "protocol": "A test was conducted to determine if feeding L-phenylalanine, 2,2,2-trichloroethyl ester to growing lambs was effective in improving growth and feed efficiency. Wether and ewe lambs were divided into groups of 30 lambs each. They were acclimated to their pens for 2 weeks prior to treatment.\nThe feed supplied to the animals had the following composition\nThe test compound in an amount of 0.0055% (50 g/ton) was admixed with the above feed composition.\nBody weights and feed consumption were recorded at 0, 2, 4 and 6 weeks. Feed efficiencies were calculated.\nThe test procedure of Example 9 was followed to test the growth effect and feed efficiency of glycine 2,2,2-trichloroethyl ester on growing lambs. The feed composition of Example 9 was used but contained glycine 2,2,2-trichloroethyl ester in an amount of 0.0044% (40 g/ton). There were 44 lambs in the control group receiving the feed composition without additive and 42 lambs receiving the feed composition containing the amino acid ester.\nThe test procedure of Example 9 was followed to test the growth effect and feed efficiency of L-phenylalanine 2,2,2-trichloroethyl ester on growing lambs. The feed composition of Example 9 was used but contained 0.0088% (80 g/ton) of this amino acid ester. There were 59 lambs in the control group fed the feed without additive and 58 lambs in the group fed the feed composition containing the test compound."}}, "data": [{"compound": "Br.N[C@@H](Cc1ccccc1)C(=O)OCC(Cl)(Cl)Cl", "note": "[L-Phenylalanine 2,2,2-trichloroethyl ester, hydrobromide]", "values": [{"measurement": "Acetic acid", "setting": "[1]; 0.02 mg/ml", "result": "80 % of control"}, {"measurement": "Acetic:propionic", "setting": "[1]; 0.02 mg/ml", "result": "69 % of control"}, {"measurement": "Butyric acid", "setting": "[1]; 0.02 mg/ml", "result": "114 % of control"}, {"measurement": "Propionic acid", "setting": "[1]; 0.02 mg/ml", "result": "116 % of control"}, {"measurement": "Total acids", "setting": "[1]; 0.02 mg/ml", "result": "95 % of control"}, {"measurement": "Acetic acid", "setting": "[1]; 0.1 mg/ml", "result": "76 % of control"}, {"measurement": "Acetic:propionic", "setting": "[1]; 0.1 mg/ml", "result": "66 % of control"}, {"measurement": "Butyric acid", "setting": "[1]; 0.1 mg/ml", "result": "113 % of control"}, {"measurement": "Propionic acid", "setting": "[1]; 0.1 mg/ml", "result": "115 % of control"}, {"measurement": "Total acids", "setting": "[1]; 0.1 mg/ml", "result": "92 % of control"}, {"measurement": "Acetic acid", "setting": "[1]; 0.2 mg/ml", "result": "76 % of control"}, {"measurement": "Acetic:propionic", "setting": "[1]; 0.2 mg/ml", "result": "65 % of control"}, {"measurement": "Butyric acid", "setting": "[1]; 0.2 mg/ml", "result": "113 % of control"}, {"measurement": "Propionic acid", "setting": "[1]; 0.2 mg/ml", "result": "116 % of control"}, {"measurement": "Total acids", "setting": "[1]; 0.2 mg/ml", "result": "92 % of control"}, {"measurement": "Acetic acid", "setting": "[1]; 0.4 mg/ml", "result": "79 % of control"}, {"measurement": "Acetic:propionic", "setting": "[1]; 0.4 mg/ml", "result": "65 % of control"}, {"measurement": "Butyric acid", "setting": "[1]; 0.4 mg/ml", "result": "116 % of control"}, {"measurement": "Propionic acid", "setting": "[1]; 0.4 mg/ml", "result": "120 % of control"}, {"measurement": "Total acids", "setting": "[1]; 0.4 mg/ml", "result": "96 % of control"}, {"measurement": "Acetic acid", "setting": "[1]; 1.0 mg/ml", "result": "76 % of control"}, {"measurement": "Acetic:propionic", "setting": "[1]; 1.0 mg/ml", "result": "64 % of control"}, {"measurement": "Butyric acid", "setting": "[1]; 1.0 mg/ml", "result": "112 % of control"}, {"measurement": "Propionic acid", "setting": "[1]; 1.0 mg/ml", "result": "119 % of control"}, {"measurement": "Total acids", "setting": "[1]; 1.0 mg/ml", "result": "92 % of control"}, {"measurement": "effect on acetic:propionic ratio (in words)", "setting": "[1]; high concentrate substrate", "result": "decreasing the acetic:propionic ratio"}, {"measurement": "effect on propionic acid concentration (in words)", "setting": "[1]; high concentrate substrate", "result": "effective in increasing the propionic acid concentration"}, {"measurement": "Acetic acid", "setting": "[2]; 0.02 mg/ml", "result": "95 % of control"}, {"measurement": "Acetic:propionic", "setting": "[2]; 0.02 mg/ml", "result": "83 % of control"}, {"measurement": "Butyric acid", "setting": "[2]; 0.02 mg/ml", "result": "106 % of control"}, {"measurement": "Propionic acid", "setting": "[2]; 0.02 mg/ml", "result": "115 % of control"}, {"measurement": "Total acids", "setting": "[2]; 0.02 mg/ml", "result": "101 % of control"}, {"measurement": "Acetic acid", "setting": "[2]; 0.04 mg/ml", "result": "85 % of control"}, {"measurement": "Acetic:propionic", "setting": "[2]; 0.04 mg/ml", "result": "77 % of control"}, {"measurement": "Butyric acid", "setting": "[2]; 0.04 mg/ml", "result": "114 % of control"}, {"measurement": "Propionic acid", "setting": "[2]; 0.04 mg/ml", "result": "111 % of control"}, {"measurement": "Total acids", "setting": "[2]; 0.04 mg/ml", "result": "95 % of control"}, {"measurement": "Acetic acid", "setting": "[2]; 0.08 mg/ml", "result": "95 % of control"}, {"measurement": "Acetic:propionic", "setting": "[2]; 0.08 mg/ml", "result": "84 % of control"}, {"measurement": "Butyric acid", "setting": "[2]; 0.08 mg/ml", "result": "108 % of control"}, {"measurement": "Propionic acid", "setting": "[2]; 0.08 mg/ml", "result": "112 % of control"}, {"measurement": "Total acids", "setting": "[2]; 0.08 mg/ml", "result": "100 % of control"}, {"measurement": "Acetic acid", "setting": "[2]; 0.1 mg/ml", "result": "92 % of control"}, {"measurement": "Acetic:propionic", "setting": "[2]; 0.1 mg/ml", "result": "74 % of control"}, {"measurement": "Butyric acid", "setting": "[2]; 0.1 mg/ml", "result": "116 % of control"}, {"measurement": "Propionic acid", "setting": "[2]; 0.1 mg/ml", "result": "124 % of control"}, {"measurement": "Total acids", "setting": "[2]; 0.1 mg/ml", "result": "102 % of control"}, {"measurement": "Acetic acid", "setting": "[2]; 0.2 mg/ml", "result": "90 % of control"}, {"measurement": "Acetic:propionic", "setting": "[2]; 0.2 mg/ml", "result": "75 % of control"}, {"measurement": "Butyric acid", "setting": "[2]; 0.2 mg/ml", "result": "114 % of control"}, {"measurement": "Propionic acid", "setting": "[2]; 0.2 mg/ml", "result": "120 % of control"}, {"measurement": "Total acids", "setting": "[2]; 0.2 mg/ml", "result": "100 % of control"}, {"measurement": "Acetic acid", "setting": "[2]; 0.4 mg/ml", "result": "83 % of control"}, {"measurement": "Acetic:propionic", "setting": "[2]; 0.4 mg/ml", "result": "73 % of control"}, {"measurement": "Butyric acid", "setting": "[2]; 0.4 mg/ml", "result": "115 % of control"}, {"measurement": "Propionic acid", "setting": "[2]; 0.4 mg/ml", "result": "114 % of control"}, {"measurement": "Total acids", "setting": "[2]; 0.4 mg/ml", "result": "94 % of control"}, {"measurement": "effect on acetic to propionic acid ratio (in words)", "setting": "[2]; at all levels (0.02-0.4 mg/ml)", "result": "decreasing the acetic to propionic acid ratio"}, {"measurement": "effect on propionic acid concentrations (in words)", "setting": "[2]; at all levels (0.02-0.4 mg/ml)", "result": "effective in increasing the propionic acid concentrations"}, {"measurement": "Body weight gain", "setting": "growing lambs; 0.0055% (50 g/ton) in feed, 0-2 wks., control 2.47", "result": 2.97, "unit": "kg"}, {"measurement": "Body weight gain", "setting": "growing lambs; 0.0055% (50 g/ton) in feed, 0-4 wks., control 5.80", "result": 5.82, "unit": "kg"}, {"measurement": "Feed efficiency", "setting": "growing lambs; 0.0055% (50 g/ton) in feed, 0-6 wks., control 0.190", "result": "0.196 gain/unit of feed"}, {"measurement": "Body weight gain", "setting": "growing lambs; 0.0055% (50 g/ton) in feed, 0-6 wks., control 8.51", "result": 9.08, "unit": "kg"}, {"measurement": "effect on feed efficiency (in words)", "setting": "growing lambs; 0.0055% (50 g/ton) in the feed", "result": "improving feed efficiency"}, {"measurement": "effect on gains (in words)", "setting": "growing lambs; 0.0055% (50 g/ton) in the feed", "result": "effective in increasing gains"}, {"measurement": "Weight gain", "setting": "growing lambs; 0.0088% (80 g/ton) in feed, 0-2 wks, control 1.50", "result": 1.49, "unit": "kg"}, {"measurement": "Weight gain", "setting": "growing lambs; 0.0088% (80 g/ton) in feed, 0-4 wks, control 4.44", "result": 4.63, "unit": "kg"}, {"measurement": "Feed efficiency", "setting": "growing lambs; 0.0088% (80 g/ton) in feed, 0-6 wks, control 0.160", "result": 0.168, "unit": "gain/feed"}, {"measurement": "Weight gain", "setting": "growing lambs; 0.0088% (80 g/ton) in feed, 0-6 wks, control 7.56", "result": 7.81, "unit": "kg"}]}]}
